# Test results taken from patent publication US20240228482A1, “COMPOUNDS, COMPOSITIONS AND METHODS OF TREATING CANCER” (HOTSPOT THERAPEUTICS, INC., priority 2021, published 2024).
# Biological target: T1, CBL-B (Homo sapiens, UniProt Q13191)
# T1 construct: GST
# Assay: CBL-B TR-FRET IC50 screening (E1/E2 ubiquitination, Biotin-Ubiquitin, Anti GST-Tb donor / Streptavidin-d2 acceptor)
# Assay type: biochemical
# Conditions: CBL-B 10 nM final; 11-point titration from 100 uM; binned A-F; read-out: CBL-B TR-FRET activity IC50
# T1 sequence (Q13191 whole entry): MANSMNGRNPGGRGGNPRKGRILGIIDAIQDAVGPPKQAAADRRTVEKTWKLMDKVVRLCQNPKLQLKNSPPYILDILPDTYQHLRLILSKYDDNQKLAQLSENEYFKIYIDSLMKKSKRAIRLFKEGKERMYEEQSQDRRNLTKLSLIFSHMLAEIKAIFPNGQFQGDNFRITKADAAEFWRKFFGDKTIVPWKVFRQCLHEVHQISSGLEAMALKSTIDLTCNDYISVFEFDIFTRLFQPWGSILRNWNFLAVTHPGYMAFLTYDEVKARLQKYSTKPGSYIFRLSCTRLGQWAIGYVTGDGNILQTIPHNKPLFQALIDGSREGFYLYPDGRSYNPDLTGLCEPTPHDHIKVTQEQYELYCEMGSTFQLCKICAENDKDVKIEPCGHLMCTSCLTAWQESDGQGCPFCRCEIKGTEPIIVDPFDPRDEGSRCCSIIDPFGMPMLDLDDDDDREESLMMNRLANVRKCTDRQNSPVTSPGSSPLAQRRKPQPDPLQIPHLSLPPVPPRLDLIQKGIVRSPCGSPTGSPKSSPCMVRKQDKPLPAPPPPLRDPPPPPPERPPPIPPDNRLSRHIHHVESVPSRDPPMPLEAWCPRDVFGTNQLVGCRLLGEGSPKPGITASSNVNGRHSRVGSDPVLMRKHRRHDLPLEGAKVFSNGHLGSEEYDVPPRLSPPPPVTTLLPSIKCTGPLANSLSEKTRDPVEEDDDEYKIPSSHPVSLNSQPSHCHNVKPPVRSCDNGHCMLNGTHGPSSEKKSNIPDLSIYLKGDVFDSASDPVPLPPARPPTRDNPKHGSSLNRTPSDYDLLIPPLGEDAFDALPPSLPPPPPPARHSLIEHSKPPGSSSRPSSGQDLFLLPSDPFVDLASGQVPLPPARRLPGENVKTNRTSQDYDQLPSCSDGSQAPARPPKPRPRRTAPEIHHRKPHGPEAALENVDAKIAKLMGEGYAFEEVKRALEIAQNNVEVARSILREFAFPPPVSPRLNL
row,IC50 [nM],SMILES
1,301 to 1000,CC(Cc1nncn1C)c1cccc(-n2cc3c(C(F)(F)F)cccn3c2=O)c1 (stereo not shown) [Compound 1]
2,301 to 1000,C[C@H](Cc1nncn1C)c1cccc(-n2cc3c(C(F)(F)F)cccn3c2=O)c1 [Compound 2]
3,3000 to 10000,C[C@@H](Cc1nncn1C)c1cccc(-n2cc3c(C(F)(F)F)cccn3c2=O)c1 [Compound 3]
4,> 10000,Cn1cnnc1CC1CCc2c1cccc2-n1cc2c(C(F)(F)F)cccn2c1=O (stereo not shown) [Compound 4]
5,> 10000,C[C@@H](Sc1nncn1C)c1cccc(-n2cc3c(C(F)(F)F)cccn3c2=O)c1 [Compound 5]
6,> 10000,C[C@H](Sc1nncn1C)c1cccc(-n2cc3c(C(F)(F)F)cccn3c2=O)c1 [Compound 6]
7,100 to 300,Cn1cnnc1CC1(c2cccc(-n3cc4c(C(F)(F)F)cc(Br)cn4c3=O)c2)COC1 [Compound 7]
8,100 to 300,C=Cc1cc(C(F)(F)F)c2cn(-c3cccc(C4(Cc5nncn5C)COC4)c3)c(=O)n2c1 [Compound 8]
9,100 to 300,Cn1cnnc1CC1(c2cccc(-n3cc4c(C(F)(F)F)cccn4c3=O)c2)COC1 [Compound 9]
10,< 100,Cn1cnnc1CC1(c2cccc(-n3cc4c(C(F)(F)F)cc(CN5CCC6(CC6)C5)cn4c3=O)c2)COC1 [Compound 10]
11,< 100,Cn1cnnc1CC1(c2cccc(-n3cc4c(C(F)(F)F)cc(CN5CCC(C)(F)CC5)cn4c3=O)c2)COC1 [Compound 11]
12,< 100,C[C@@H]1CN(Cc2cc(C(F)(F)F)c3cn(-c4cccc(C5(Cc6nncn6C)COC5)c4)c(=O)n3c2)CCO1 [Compound 12]
13,< 100,Cn1cnnc1CC1(c2cccc(-n3cc4c(C(F)(F)F)cc(CN5CCC(F)CC5)cn4c3=O)c2)COC1 [Compound 13]
14,< 100,Cn1cnnc1CC1(c2cccc(-n3cc4c(C(F)(F)F)cc(CN5CC[C@H](F)C5)cn4c3=O)c2)COC1 [Compound 14]
15,100 to 300,CN1CC2CCC(C1)N2c1cc(C(F)(F)F)c2cn(-c3cccc(C4(Cc5nncn5C)COC4)c3)c(=O)n2c1 [Compound 15]
16,> 10000,Cn1cnnc1C[C@@H]1CCc2c1cccc2-n1cc2c(C(F)(F)F)cccn2c1=O [Compound 17]
17,100 to 300,Cn1cnnc1CC1(c2cccc(-n3cc4c(C(F)(F)F)cc(C#N)cn4c3=O)c2)COC1 [Compound 18]
18,1000 to 3000,CC(=O)c1cc(C(F)(F)F)c2cn(-c3cccc(C4(Cc5nncn5C)COC4)c3)c(=O)n2c1 [Compound 19]
19,3000 to 10000,Cn1cnnc1CC1(c2cccc(-n3cc4c(C(F)(F)F)cc(C(=O)O)cn4c3=O)c2)COC1 [Compound 20]
20,< 100,Cn1cnnc1CC1(c2cccc(-n3cc4c(C(F)(F)F)cc(CN5CC6(CC6)C5)cn4c3=O)c2)COC1 [Compound 21]
21,< 100,Cn1cnnc1CC1(c2cccc(-n3cc4c(C(F)(F)F)cc(CN5CCC[C@H](F)C5)cn4c3=O)c2)COC1 [Compound 22]
22,< 100,Cn1cnnc1CC1(c2cccc(-n3cc4c(C(F)(F)F)cc(CN5CC(F)C5)cn4c3=O)c2)COC1 [Compound 23]
23,< 100,Cn1cnnc1CC1(c2cccc(-n3cc4c(C(F)(F)F)cc(CN5CC[C@@H](C#N)C5)cn4c3=O)c2)COC1 [Compound 24]
24,< 100,Cn1cnnc1CC1(c2cccc(-n3cc4c(C(F)(F)F)cc(CN5CC6CC6C5)cn4c3=O)c2)COC1 (stereo not shown) [Compound 25]

# Same assay, conditions: second part of Table 2 (head 'Patent Cmpd No / Updated Activity'); same CBL-B TR-FRET IC50 bins A-F; read-out: Updated Activity
row,IC50 [nM],SMILES
1,1000 to 3000,"COC1([C@H](c2cccc(-n3cc4c(C(F)(F)F)cc(CN5CCC[C@H](C)C5)cn4c3=O)c2)c2nncn2C)CCC1 (single isomer, unassigned) [Compound 578]"
2,301 to 1000,"COC1([C@@H](c2cccc(-n3cc4c(C(F)(F)F)cc(CN5CCC[C@H](C)C5)cn4c3=O)c2)c2nncn2C)CCC1 (single isomer, unassigned) [Compound 579]"
3,3000 to 10000,"C[C@H](c1cc(C(F)(F)F)c2cn(-c3cccc([C@H](c4nncn4C)C4CCC4)c3)c(=O)n2c1)N1CCC[C@H](C(F)(F)F)C1 (single isomer, unassigned) [Compound 580]"
4,> 10000,"Cc1cnnn1[C@H](c1cccc(-n2cc3c(C(F)(F)F)cc(CN4CCC[C@H](C)C4)cn3c2=O)c1)C1CCC1 (single isomer, unassigned) [Compound 582]"
5,3000 to 10000,"Cc1cnnn1[C@@H](c1cccc(-n2cc3c(C(F)(F)F)cc(CN4CCC[C@H](C)C4)cn3c2=O)c1)C1CCC1 (single isomer, unassigned) [Compound 583]"
6,> 10000,"C[C@H]1CCCN(Cc2cc(C(F)(F)F)c3cn(-c4cccc([C@@H](c5nc(CO)cn5C)C5CCC5)c4)c(=O)n3c2)C1 (single isomer, unassigned) [Compound 584]"
7,> 10000,"C[C@H]1CCCN(Cc2cc(C(F)(F)F)c3cn(-c4cccc([C@H](c5nc(CO)cn5C)C5CCC5)c4)c(=O)n3c2)C1 (single isomer, unassigned) [Compound 585]"
8,< 100,"C[C@@H]1CN(Cc2cc(C(F)(F)F)c3cn(-c4cccc([C@H](c5nncn5C)C5CCC5)c4)c(=O)n3c2)CC[C@H]1O (single isomer, unassigned) [Compound 586]"
9,< 100,"C[C@H]1C[C@@H](O)CN(Cc2cc(C(F)(F)F)c3cn(-c4cccc([C@H](c5nncn5C)C5CCC5)c4)c(=O)n3c2)C1 (single isomer, unassigned) [Compound 587]"
10,< 100,"C[C@H]1CN(Cc2cc(C(F)(F)F)c3cn(-c4cccc([C@H](c5nncn5C)C5CCC5)c4)c(=O)n3c2)CC[C@@H]1O (single isomer, unassigned) [Compound 588]"
11,< 100,"C[C@@H]1C[C@H](O)CN(Cc2cc(C(F)(F)F)c3cn(-c4cccc([C@H](c5nncn5C)C5CCC5)c4)c(=O)n3c2)C1 (single isomer, unassigned) [Compound 589]"
12,< 100,"C[C@@H]1CC(=O)NN1Cc1cc(C(F)(F)F)c2cn(-c3cccc([C@H](c4nncn4C)C4CCC4)c3)c(=O)n2c1 (single isomer, unassigned) [Compound 598]"
13,< 100,"C[C@H]1CC(=O)NN1Cc1cc(C(F)(F)F)c2cn(-c3cccc([C@H](c4nncn4C)C4CCC4)c3)c(=O)n2c1 (single isomer, unassigned) [Compound 599]"
14,< 100,"CO[C@H]1C[C@@](c2cccc(-n3cc4c(C(F)(F)F)cc([C@@H](C)N5CCC[C@H](C)C5)cn4c3=O)c2)(c2nncn2C)C1 (single isomer, unassigned) [Compound 600]"
15,< 100,"CO[C@H]1C[C@@](c2cccc(-n3cc4c(C(F)(F)F)cc([C@H](C)N5CCC[C@H](C)C5)cn4c3=O)c2)(c2nncn2C)C1 (single isomer, unassigned) [Compound 601]"
16,301 to 1000,"CO[C@H]1C[C@@](c2cccc(-n3cc4c(C(F)(F)F)cc([C@@H](C)N5CCC(F)CC5)cn4c3=O)c2)(c2nncn2C)C1 (single isomer, unassigned) [Compound 602]"

row,IC50 [nM],SMILES
1,< 100,"CO[C@H]1C[C@@](c2cccc(-n3cc4c(C(F)(F)F)cc([C@H](C)N5CCC(F)CC5)cn4c3=O)c2)(c2nncn2C)C1 (single isomer, unassigned) [Compound 603]"
2,< 100,"CO[C@H]1C[C@](c2cccc(-n3cc4c(C(F)(F)F)cc([C@@H](C)N5CCC[C@H](C)C5)cn4c3=O)c2)(c2nncn2C)C1 (single isomer, unassigned) [Compound 604]"
3,< 100,"CO[C@H]1C[C@](c2cccc(-n3cc4c(C(F)(F)F)cc([C@H](C)N5CCC[C@H](C)C5)cn4c3=O)c2)(c2nncn2C)C1 (single isomer, unassigned) [Compound 605]"
4,100 to 300,"CO[C@H]1C[C@](c2cccc(-n3cc4c(C(F)(F)F)cc([C@@H](C)N5CCC(F)CC5)cn4c3=O)c2)(c2nncn2C)C1 (single isomer, unassigned) [Compound 606]"
5,< 100,"CO[C@H]1C[C@](c2cccc(-n3cc4c(C(F)(F)F)cc([C@H](C)N5CCC(F)CC5)cn4c3=O)c2)(c2nncn2C)C1 (single isomer, unassigned) [Compound 607]"
6,< 100,"C[C@H](c1cc(C(F)(F)F)c2cn(-c3cccc([C@H](c4nncn4C)C4CCC4)c3)c(=O)n2c1)N1CCC[C@@H](C(F)(F)F)C1 (single isomer, unassigned) [Compound 613]"
7,< 100,"C[C@@H](c1cc(C(F)(F)F)c2cn(-c3cccc([C@H](c4nncn4C)C4CCC4)c3)c(=O)n2c1)N1CCC[C@@H](C(F)(F)F)C1 (single isomer, unassigned) [Compound 614]"
8,301 to 1000,"CO[C@H]1C[C@@](c2cccc(-n3cc4c(C(F)(F)F)cc([C@@H](C)N5CC[C@H](F)C5)cn4c3=O)c2)(c2nncn2C)C1 (single isomer, unassigned) [Compound 615]"
9,< 100,"CO[C@H]1C[C@@](c2cccc(-n3cc4c(C(F)(F)F)cc([C@H](C)N5CC[C@H](F)C5)cn4c3=O)c2)(c2nncn2C)C1 (single isomer, unassigned) [Compound 616]"
10,100 to 300,"CO[C@H]1C[C@](c2cccc(-n3cc4c(C(F)(F)F)cc([C@@H](C)N5CC[C@@H](F)C5)cn4c3=O)c2)(c2nncn2C)C1 (single isomer, unassigned) [Compound 617]"
11,100 to 300,"CO[C@H]1C[C@](c2cccc(-n3cc4c(C(F)(F)F)cc([C@H](C)N5CC[C@@H](F)C5)cn4c3=O)c2)(c2nncn2C)C1 (single isomer, unassigned) [Compound 618]"
12,> 10000,"Cn1cnnc1[C@H](c1cc(F)cc(-n2cc3c(C(F)(F)F)cc(CN4CC(F)(F)C4)cn3c2=O)c1)C1CCC1 (single isomer, unassigned) [Compound 619]"
13,100 to 300,"Cn1cnnc1[C@@H](c1cc(F)cc(-n2cc3c(C(F)(F)F)cc(CN4CC(F)(F)C4)cn3c2=O)c1)C1CCC1 (single isomer, unassigned) [Compound 620]"
14,< 100,"CN1CC[C@]2(CCN(Cc3cc(C(F)(F)F)c4cn(-c5cccc([C@H](c6nncn6C)C6CCC6)c5)c(=O)n4c3)C2)C1=O (single isomer, unassigned) [Compound 621]"
15,< 100,"CN1CC[C@@]2(CCN(Cc3cc(C(F)(F)F)c4cn(-c5cccc([C@H](c6nncn6C)C6CCC6)c5)c(=O)n4c3)C2)C1=O (single isomer, unassigned) [Compound 623]"
